Laboratory results as given in patent US20180200257A1, “METHODS FOR THE TREATMENT OF INFLAMMATORY DISORDERS” (Galapagos NV, priority 2015, published 2018).

Tested on: subjects with moderately to severely active RA who have an inadequate response to methotrexate (MTX)
Test: Study 1 (add-on to MTX) - ACR responses (ACR20/50/70)
Type: in vivo, human
Excerpt: The terms “ACR20”, “ACR50” and “ACR70” as used herein are scores which indicate how much a patient's rheumatoid arthritis has improved according to criteria set out by the American College of Rheumatology (ACR). The ACR score represents a percentage. An ACR20 score means that a person's RA has improved by 20%, an ACR50 score means it has improved by 50%, and an ACR70 score means it has improved by 70%. Specifically, to qualify for an ACR20 score, a person with RA must have at least 20% fewer tender joints and at least 20% fewer swollen joints. In addition the patient must show a 20% improvement in at least three of the following five areas: the person's overall (global) assessment of his or her own RA, the physician's global assessment of the person's RA, the person's assessment of his or her own pain, the person's assessment of his or her own physical functioning, and the results of an erythrocyte sedimentation rate or C-reactive protein (CRP) blood test (both of which test for inflammation). ACR50 and ACR70 scores use the same criteria but require 50% and 70% improvement, respectively, (Felson et al., 1993). In the data presented herein the CRP blood test is used.
Double-blind, placebo-controlled add on study in subjects with moderately to severely active RA who have an inadequate response to methotrexate (MTX) (oral or parenteral).
595 subjects randomized to one of 6 dose regimens of Compound 1 (dosed as [Compound 1:HCl:3H2O]) (3 dose levels administered either once or twice daily) or placebo on top of each subject's stable dose of MTX.
Compound 1 (dosed as [Compound 1:HCl:3H2O]) is dosed for twelve weeks once daily (q.d.) (50 mg, 100 mg or 200 mg) or twice daily (b.i.d.) (25 mg, 50 mg or 100 mg); or placebo.
At Week 12, the subjects on placebo who have not achieved 20% improvement in swollen joint count (SJC66) and tender joint count (TJC68) are re-randomized automatically to receive Compound 1 (dosed as a [Compound 1:HCl:3H2O]) either at 100 mg q.d. or 50 mg b.i.d. doses in a blinded fashion; subjects on 50 mg q.d. who have not achieved 20% improvement in SJC66 and TJC68 will be assigned to 100 mg q.d. and subjects on 25 mg b.i.d. that have not achieved a 20% improvement in SJC66 and TJC68 will be assigned to 50 mg b.i.d. Subjects who switch treatment at week 12 are handled as if they discontinued at week 12 for the purpose of statistical analysis, whereas subjects in the other groups will maintain their randomized treatment until Week 24.
The American College of Rheumatology (ACR) composite score, which evaluates clinical improvement relative to an initial assessment, is a commonly accepted efficacy end point for clinical trials in patients with rheumatoid arthritis. The ACR score correspond to a percentage improvement in pre-set parameters, and therefore measures the evolution of the disease in a patient. For example, ACR20 denotes at least 20% improvement in tender and swollen joint counts and in three of the following end points: global assessment by the patient, global assessment by the doctor, C reactive protein (CRP), patient's pain Visual Analogue Scale and Health Assessment Questionnaire Score. The number of swollen joints, ESR and CRP correlate with radiographic progression of joint damage, whereas tender joint counts, as well as global assessments by doctors and patients, and patients' reports of pain, are sensitive to change in clinical outcomes. Physical function, as assessed by the Health Assessment Questionnaire Score, is a potent predictor of the risk of disability in rheumatoid arthritis (Felson and American College of Rheumatology Committee to Reevaluate Improvement Criteria, 2007; Felson et al., 1993).
In particular, the list of parameters used to assess ACR score can be found in the Table XCVI below and the results of the ACR responses at week 12 via either NRI or LOCF are shown in the tables below. The Hommel-corrected p-value for the pairwise comparisons of each group with placebo is shown. […]

[1] = 50 mg q.d., week 2, 12 weeks results
[2] = 50 mg q.d., week 2, 24 weeks results
[3] = 50 mg q.d., week 4, 12 weeks results
[4] = 50 mg q.d., week 4, 24 weeks results
[5] = 50 mg q.d., week 12, 12 weeks results
[6] = 50 mg q.d., week 12, 24 weeks results
[7] = 50 mg q.d., week 16, 24 weeks results
[8] = 50 mg q.d., week 20, 24 weeks results
[9] = 50 mg q.d., week 24, 24 weeks results
[10] = 50 mg q.d., at week 1, 12 weeks results
[11] = 50 mg q.d., at week 1, 24 weeks results
[12] = 50 mg q.d., week 8, 12 weeks results
[13] = 50 mg q.d., week 8, 24 weeks results
[14] = 100 mg q.d., week 2, 12 weeks results
[15] = 100 mg q.d., week 2, 24 weeks results
[16] = 100 mg q.d., week 4, 12 weeks results
[17] = 100 mg q.d., week 4, 24 weeks results
[18] = 100 mg q.d., week 8, 24 weeks results
[19] = 100 mg q.d., week 12, 12 weeks results

SMILES: O=C(Nc1nc2cccc(-c3ccc(CN4CCS(=O)(=O)CC4)cc3)n2n1)C1CC1 [Compound 1, cyclopropanecarboxylic acid {5-[4-(1,1-dioxo-thiomorpholin-4-ylmethyl)-phenyl]-[1,2,4]triazolo[1,5-a]pyridin-2-yl}-amide]
- ACR20 (LOCF) [1]: 39.0%
- ACR20 (NRI) [1]: 37.8%
- ACR50 (LOCF) [1]: 7.3%
- ACR50 (NRI) [1]: 7.3%
- ACR70 (LOCF) [1]: 2.4%
- ACR70 (NRI) [1]: 2.4%
- ACR20 (LOCF) [2]: 39.0%
- ACR20 (NRI) [2]: 37.8%
- ACR50 (LOCF) [2]: 7.3%
- ACR50 (NRI) [2]: 7.3%
- ACR70 (LOCF) [2]: 2.4%
- ACR70 (NRI) [2]: 2.4%
- ACR20 (LOCF) [3]: 45.1%
- ACR20 (NRI) [3]: 42.7%
- ACR50 (LOCF) [3]: 12.2%
- ACR50 (NRI) [3]: 12.2%
- ACR70 (LOCF) [3]: 7.3%
- ACR70 (NRI) [3]: 7.3%
- ACR20 (LOCF) [4]: 45.1%
- ACR20 (NRI) [4]: 42.7%
- ACR50 (LOCF) [4]: 12.2%
- ACR50 (NRI) [4]: 12.2%
- ACR70 (LOCF) [4]: 7.3%
- ACR70 (NRI) [4]: 7.3%
- ACR20 (LOCF) [5]: 59.8%
- ACR20 (NRI) [5]: 56.1%
- ACR50 (LOCF) [5]: 31.7%
- ACR50 (NRI) [5]: 31.7%
- ACR70 (LOCF) [5]: 15.9%
- ACR70 (NRI) [5]: 15.9%
- ACR20 (LOCF) [6]: 59.8%
- ACR20 (NRI) [6]: 56.1%
- ACR50 (LOCF) [6]: 31.7%
- ACR50 (NRI) [6]: 31.7%
- ACR70 (LOCF) [6]: 15.9%
- ACR70 (NRI) [6]: 15.9%
- ACR20 (LOCF) [7]: 59.8%
- ACR20 (NRI) [7]: 56.1%
- ACR50 (LOCF) [7]: 37.8%
- ACR50 (NRI) [7]: 37.8%
- ACR70 (LOCF) [7]: 18.3%
- ACR70 (NRI) [7]: 18.3%
- ACR20 (LOCF) [8]: 61.0%
- ACR20 (NRI) [8]: 57.3%
- ACR50 (LOCF) [8]: 39.0%
- ACR70 (LOCF) [8]: 23.2%
- ACR20 (LOCF) [9]: 61.0%
- ACR20 (NRI) [9]: 54.9%
- ACR50 (LOCF) [9]: 36.6%
- ACR70 (LOCF) [9]: 22.0%
- ACR20 (LOCF) [10]: 22.0%
- ACR20 (NRI) [10]: 22.0%
- ACR50 (LOCF) [10]: 2.4%
- ACR50 (NRI) [10]: 2.4%
- ACR70 (LOCF) [10]: 0.0%
- ACR70 (NRI) [10]: 0.0%
- ACR20 (LOCF) [11]: 22.0%
- ACR20 (NRI) [11]: 22.0%
- ACR50 (LOCF) [11]: 2.4%
- ACR50 (NRI) [11]: 2.4%
- ACR70 (LOCF) [11]: 0.0%
- ACR70 (NRI) [11]: 0.0%
- ACR20 (LOCF) [12]: 57.3%
- ACR20 (NRI) [12]: 54.9%
- ACR50 (LOCF) [12]: 25.6%
- ACR50 (NRI) [12]: 26.8%
- ACR70 (LOCF) [12]: 11.0%
- ACR70 (NRI) [12]: 11.0%
- ACR20 (LOCF) [13]: 57.3%
- ACR20 (NRI) [13]: 54.9%
- ACR50 (LOCF) [13]: 26.8%
- ACR50 (NRI) [13]: 26.8%
- ACR70 (LOCF) [13]: 11.0%
- ACR70 (NRI) [13]: 11.0%
- ACR20 (LOCF) [14]: 45.9%
- ACR20 (NRI) [14]: 47.1%
- ACR50 (LOCF) [14]: 20.0%
- ACR50 (NRI) [14]: 20.0%
- ACR70 (LOCF) [14]: 7.1%
- ACR70 (NRI) [14]: 7.1%
- ACR20 (LOCF) [15]: 48.2%
- ACR20 (NRI) [15]: 47.1%
- ACR50 (LOCF) [15]: 20.0%
- ACR50 (NRI) [15]: 20.0%
- ACR70 (LOCF) [15]: 7.1%
- ACR70 (NRI) [15]: 7.1%
- ACR20 (LOCF) [16]: 48.2%
- ACR20 (NRI) [16]: 50.6%
- ACR50 (LOCF) [16]: 32.9%
- ACR50 (NRI) [16]: 32.9%
- ACR70 (LOCF) [16]: 15.3%
- ACR70 (NRI) [16]: 15.3%
- ACR20 (LOCF) [17]: 51.8%
- ACR20 (NRI) [17]: 51.8%
- ACR50 (LOCF) [17]: 32.9%
- ACR50 (NRI) [17]: 32.9%
- ACR70 (LOCF) [17]: 15.3%
- ACR70 (NRI) [17]: 15.3%
- ACR20 (LOCF) [18]: 64.7%
- ACR20 (NRI) [18]: 64.7%
- ACR50 (LOCF) [18]: 35.3%
- ACR50 (NRI) [18]: 35.3%
- ACR70 (LOCF) [18]: 23.5%
- ACR70 (NRI) [18]: 23.5%
- ACR20 (LOCF) [19]: 63.5%
- ACR20 (NRI) [19]: 62.4%
- ACR50 (LOCF) [19]: 38.8%
- ACR50 (NRI) [19]: 38.8%
